A short description of experiment [1]: Reducing power (RdP) method. The following applies: individual compounds; maximum assay concentration 100 mM. How it is done:
(§1) Five antioxidant methods were performed with SlEOs and their main individual compounds in triplicate. In the oxygen radical absorbance capacity (ORAC) assay, peroxyl radicals are produced by 2,2′-Azobis(2-methylpropionamidine) dihydrochloride (AAPH), which reacts with fluorescein giving a non-fluorescent compound [61]. The antioxidants are able to scavenge these peroxyl radicals. Trolox was used as the reference antioxidant. The 2,2-diphenyl-1-picrylhydrazyl (DPPH) and 2,2′-azino-bis(3-ethylbenzothiazoline-6-sulphonic acid) (ABTS) methods measure the bleaching produced by the reduction of the coloured DPPH and ABTS radicals. Trolox was used as the reference antioxidant. The RdP method measure the ability to reduce ferric ions, according to the method of Oyaizu. Ascorbic acid was the reference antioxidant used in this method. The ChP method measured the ability to chelate Fe^2+ ion, following the method of Miguel et al.. EDTA was used as reference antioxidant. The SlEOs were diluted in 100% ethanol in the DPPH, ABTS, RdP and ChP methods, whereas in the ORAC method, SlEOs were diluted in 15% ethanol to obtain a final concentration of 5% ethanol in the reaction medium. All measurements were made at the end-point of the reaction, except in the ORAC method (Figure S5).

Experiment [2] can be described thus: Chelating power (ChP) method. The following applies: individual compounds; maximum assay concentration 100 mM. The protocol:
as §1

The subject of experiment [3] is Candida albicans ATCC 10231. In words: Broth microdilution MIC and MFC. The format is cell-based. The protocol:
(§2) The following test microorganisms used in this work were acquired from Sigma-Aldrich: Pseudomonas aeruginosa ATCC 9027, Escherichia coli ATCC 8739, Staphylococcus aureus ATCC 6538, and Candida albicans ATCC 10231. The stock cultures were preserved in TSB or YPD with 15% glycerol, for bacteria and yeast cells, respectively, at −80 °C. Isolated colonies from an 18- to 24-h agar plate were transferred to MHB for bacteria and RPMI-1640 for C. albicans.
(§3) MIC were determined using the broth microdilution method in 96-well microplates, according to the M07-A10 [69] standard for bacteria and the M27-A3 [70] for Candida. Briefly, two-fold dilutions of a 40 µL/mL SlEOs were prepared to obtain a final concentration range of 0.08–20 µL/mL with 0.5% Tween®80 and 2.5% DMSO. The antimicrobial activities of main compounds were also tested in the concentration range of 0.12–15 mM with 0.5% Tween®80 and 2.5% DMSO as solvent. The final strain concentration was 5 × 10^5 CFU/mL in MHB for the bacteria and 0.5−2.5 × 10^3 in RPMI-1640 for the yeast. These plates were incubated for 24 h for bacteria and 48 h for Candida, both at 35 ± 1 °C, under aerobic conditions on a plate shaker at 100 rpm. Streptomycin (0.06–8.00 µg/mL) and fluconazole (0.13–16 µg/mL) were used as reference antibacterial and antifungal compound, respectively. […] MIC is defined as the lowest concentration of EO or individual compound with no visible growth of microorganisms, at the end of the incubation period. […] All determinations were carried out in triplicate.

The test system of experiment [4] is Escherichia coli ATCC 8739. In words: Broth microdilution MIC and MBC. The format is cell-based. How it is done: as §2, §3
Experiment [5] concerns Staphylococcus aureus ATCC 6538. Description: Broth microdilution MIC and MBC. The format is cell-based. The protocol:
as §2, §3

A short description of the next experiment: DPPH radical method. The settings on record: individual compounds; maximum assay concentration 100 mM. How it is done:
as §1

Experiment [6] is described as follows: Oxygen radical absorbance capacity (ORAC) assay. The settings on record: individual compounds, maximum assay concentration 100 mM. How it is done:
as §1

In the next experiment the target is T1, AChE VI-S (Electrophorus electricus, UniProt O42275).
T1 construct: purchased Sigma-Aldrich
T1 sequence (O42275 24-633): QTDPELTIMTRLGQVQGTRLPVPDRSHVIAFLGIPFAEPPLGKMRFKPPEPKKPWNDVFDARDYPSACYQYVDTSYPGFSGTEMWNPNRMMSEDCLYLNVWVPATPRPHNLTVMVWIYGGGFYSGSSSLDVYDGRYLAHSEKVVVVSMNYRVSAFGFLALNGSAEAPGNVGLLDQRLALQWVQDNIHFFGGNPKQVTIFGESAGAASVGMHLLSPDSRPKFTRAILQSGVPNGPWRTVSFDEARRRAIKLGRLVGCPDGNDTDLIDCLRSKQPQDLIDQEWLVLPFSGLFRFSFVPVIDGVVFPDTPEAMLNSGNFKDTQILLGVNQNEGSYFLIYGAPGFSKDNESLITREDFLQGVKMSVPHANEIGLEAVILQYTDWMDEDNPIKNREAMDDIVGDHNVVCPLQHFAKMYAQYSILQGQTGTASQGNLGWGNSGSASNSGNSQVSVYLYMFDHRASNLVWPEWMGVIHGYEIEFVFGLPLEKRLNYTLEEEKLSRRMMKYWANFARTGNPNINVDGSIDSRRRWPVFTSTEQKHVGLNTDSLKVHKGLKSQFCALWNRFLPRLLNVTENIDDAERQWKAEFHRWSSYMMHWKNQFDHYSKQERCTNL
Description: biochemical. The protocol:
AChE VI-S from Electrophorus electricus was purchased from Sigma-Aldrich. AChE inhibitory activity was measured in triplicate using a 96-well microplate reader at 25 °C, according to Ellman’s method. This enzyme hydrolyzes acetylthiocholine to acetate and thiocholine, which reacts with 5,5-dithio-bis-(2-nitrobenzoic acid) (DTNB) producing a coloured compound with absorbance at 412 nm. The reaction was measured for 10 min at 25 °C, using a 96-well microplate reader. SlEOs were diluted in 15% ethanol, to obtain a final concentration of 5% ethanol in the reaction medium.
(§4) The DI in both antienzymatic assays were calculated using Equation (1):(1) DI (%)= ν0−νi/ν0 × 100 where v0 and v1 are the steady state rates without and with inhibitor, respectively. The inhibitions of LOX were reported as DI at 150 µg/mL of each SlEO. […] To calculate the IC50 values, data of DI (%) of seven different concentrations of each SlEO were plotted and fitted by non-linear regression according to Equation (2) using Sigma Plot software (systatsoftware.com) (Figure S6). The inhibitions of LOX and AChE by individual compounds were reported as IC50 or DI, depending on their inhibition capacities and solubilities.
(§5) (2) DI (%)= DImax [I]0/IC50+ [I]0

A further experiment concerns the target T2, LOX (Glycine max, UniProt P08170).
T2 construct: purchased Sigma-Aldrich
Description: LOX inhibition assay. It counts as biochemical, Glycine max (soybean). The settings on record: at 514.2 µg/mL; could not reach 50% inhibition. The protocol: A LOX preparation from Glycine max (soybean) was acquired from Sigma-Aldrich. LOX inhibitory activity was determined as previously reported, based on the absorption at 234 nm of the hydroperoxyde conjugated dienes (ε = 25,000 M^−1 cm^−1), which are generated from the oxidation of linoleic acid in the presence of oxygen and LOX. This assay was carried out on a double beam Lambda 35 spectrophotometer (PerkinElmer, Madrid, Spain) with the UV-Winlab software, at 25 °C.
as §4, §5

A short description of another experiment: ABTS radical method. The settings on record: individual compounds; maximum assay concentration 100 mM. The protocol: as §1

“And” between values parts separate entries of the source, which are not always exact repeats. Equal values may be shown once.

T2 sequence (P08170 whole entry): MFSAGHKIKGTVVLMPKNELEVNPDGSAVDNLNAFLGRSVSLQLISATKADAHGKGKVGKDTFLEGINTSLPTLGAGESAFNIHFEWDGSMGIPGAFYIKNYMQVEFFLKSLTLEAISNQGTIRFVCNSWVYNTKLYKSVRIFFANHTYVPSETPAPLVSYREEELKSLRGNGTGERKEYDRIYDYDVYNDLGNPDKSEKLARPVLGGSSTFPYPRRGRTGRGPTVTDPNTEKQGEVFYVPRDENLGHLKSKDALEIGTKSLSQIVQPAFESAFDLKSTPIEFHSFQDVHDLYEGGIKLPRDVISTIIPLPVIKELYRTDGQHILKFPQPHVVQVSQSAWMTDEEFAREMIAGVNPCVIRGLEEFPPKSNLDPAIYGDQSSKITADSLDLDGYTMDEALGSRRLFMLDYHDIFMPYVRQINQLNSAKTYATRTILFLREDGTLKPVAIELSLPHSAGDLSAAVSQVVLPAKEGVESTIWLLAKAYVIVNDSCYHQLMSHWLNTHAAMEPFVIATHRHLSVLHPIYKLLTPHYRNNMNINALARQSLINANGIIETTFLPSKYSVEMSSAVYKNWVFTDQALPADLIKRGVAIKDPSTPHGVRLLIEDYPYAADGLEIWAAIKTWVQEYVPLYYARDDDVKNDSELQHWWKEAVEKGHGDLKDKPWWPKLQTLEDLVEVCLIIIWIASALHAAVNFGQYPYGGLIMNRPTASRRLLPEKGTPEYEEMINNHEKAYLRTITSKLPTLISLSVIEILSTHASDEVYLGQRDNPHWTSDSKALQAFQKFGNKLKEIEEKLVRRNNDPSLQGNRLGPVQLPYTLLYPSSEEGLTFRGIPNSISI

Consider `CC12CCC(CC1)C(C)(C)O2` [1,8-Cineole], for which the RdP entry in experiment [1] is recorded as “N/D (Activity lower than 0.05 units at a maximum assay concentration of 100 mM)”. For the same molecule, the ChP in experiment [2] was 1.1 ± 0.1 µmol EDTAE/mmol X. The MIC in experiment [3] (ATCC10231, 48 h, read-out: MIC) is over 2300 µg/mL; in experiment [4] (ATCC8739, 24 h, read-out: MIC), over 2300 µg/mL; in experiment [5] (ATCC6538, 24 h, read-out: MIC), over 2300 µg/mL. For the same molecule, the MFC in [3] (ATCC10231, read-out: MFC) was over 2300 µg/mL. Moreover, the MBC was over 2300 µg/mL in [4] (ATCC8739, read-out: MBC) and over 2300 µg/mL in experiment [5] (ATCC6538, read-out: MBC). For the same molecule, the DPPH result in “DPPH radical method” was “N/D (Activity lower than 0.05 units at a maximum assay concentration of 100 mM)”. The ORAC result in [6] was “N/D (Activity lower than 0.05 units at a maximum assay concentration of 100 mM)”; in experiment [6] (listed as 1,8-cineole), “did not show any ORAC antioxidant activity”. Moreover, the 50% inhibitory concentration (IC50) on AChE VI-S is 228 µM and 227 µM. The “DI (%) of LOX” value on LOX turned out to be 30.9 ± 1.1%. In the experiment “ABTS radical method”, the ABTS result is listed as “N/D (Activity lower than 0.05 units at a maximum assay concentration of 100 mM)”.

(Values after article PMC6152226, “Composition and Antioxidant, Antienzymatic and Antimicrobial Activities of Volatile Molecules from Spanish Salvia lavandulifolia (Vahl) Essential Oils” (Molecules : A Journal of Synthetic Chemistry and Natural …, 2017).)
